The text below walks through data of patent US20250197343A1, “CATIONIC LIPID” (TAKEDA PHARMACEUTICAL COMPANY LIMITED, priority 2021, published 2025).

Data set [1] in a line: Particle size of Luc DNA-encapsulated lipid nanoparticles. In kind it is physicochemical. As to conditions: cationic lipid:DPPC:cholesterol:GM-020=60:10.6:28:1.4 molar ratio. From the text:
The particle size of the lipid particle (in the composition) can be measured by a known approach. For example, the particle size can be calculated as a Z-average particle size by the cumulant analysis of an autocorrelation function using a particle size measurement apparatus Zetasizer Nano ZS (Malvern Instruments) based on a dynamic light scattering measurement technique. The particle size (average particle size) of the lipid particle (in the composition) is, for example, 10 to 200 nm, preferably 60 to 170 nm.
(§1) A lipid mixture containing a cationic lipid of the Examples shown in Table 2 (cationic lipid:DPPC:cholesterol:GM-020=60:10.6:28:1.4, molar ratio) was dissolved in 90% of EtOH and 10% of water to obtain a 15.0 mg/ml lipid solution. Luciferase (luc) DNA (manufactured by Nature Technology Corp.) was dissolved in a 10 mM MES buffer solution (pH 5.5) to obtain a 0.3 mg/ml nucleic acid solution. The obtained lipid solution and nucleic acid solution were mixed at a flow rate ratio of 3 ml/min:6 ml/min at room temperature using NanoAssemblr (manufactured by Precision NanoSystems Inc.) to obtain a dispersion containing Luc DNA-encapsulated lipid nanoparticles. The obtained dispersion was dialyzed against water at room temperature for 1 hour and against PBS at 4° C. for 23 hours using Slyde-A-Lyzer (molecular weight cutoff: 20 K, Thermo Fischer Scientific Inc.). Subsequently, the dialysate was filtered through a 0.2 µm syringe filter (Iwaki). A 60% solution of sucrose in PBS was added thereto, and the mixture was preserved as a 20% solution of sucrose in PBS at −80° C. Analysis results of particle size and rate of encapsulation of the Luc DNA-encapsulated lipid nanoparticles are also shown in Table 2.

Data set [2] is described as follows: Rate of encapsulation of Luc DNA in lipid nanoparticles. The arrangement: unit: %. In kind it is physicochemical. The conditions noted are these: Luc DNA-encapsulated lipid nanoparticles; cationic lipid:DPPC:cholesterol:GM-020=60:10.6:28:1.4 molar ratio.
From the text: The concentration and rate of encapsulation of the nucleic acid (e.g., siRNA or mRNA) in the composition of the present invention can be measured by a known approach. For example, the nucleic acid is fluorescently labeled using Quant-iT™ RiboGreen® (Invitrogen Corp.), and the fluorescence intensity can be measured to determine the concentration and the rate of encapsulation. The concentration of the nucleic acid in the composition can be calculated using a calibration curve prepared from aqueous nucleic acid solutions having known concentrations. The rate of encapsulation can be calculated on the basis of the difference in fluorescence intensity between the presence and absence of addition of Triton-X 100 (surfactant for disrupting the lipid particle). The concentration of the nucleic acid in the composition refers to the total concentration of a nucleic acid encapsulated in the lipid particle and an unencapsulated nucleic acid. The rate of encapsulation refers to the ratio of the nucleic acid encapsulated in the lipid particle to all nucleic acids in the composition.
as §1

The test system of data set [3] is ICrl:CD1 (ICR) mice. Briefly: Mouse bioluminescence imaging evaluation (Test Example 1). In kind it is in vivo. The conditions noted are these: Luc DNA-encapsulated lipid nanoparticles 10 mL/kg i.v. to ICR mice; IVIS total flux 15 minutes after luciferin i.p. Here is the method:
The Luc DNA-encapsulated lipid nanopatricles obtained in the aforesaid Production Example were intravenously administered to the tails of ICrl:CD1 (ICR) mice (10 mL/kg i.v.). After administration of the lipid particles, luciferin (15 mg/mL) was administered to the mice (10 mL/kg i.p.), which were loaded in an IVIS (in vivo imaging system) apparatus (manufactured by PerkinElmer, Inc.) under isoflurane inhalation anesthesia. Luminescence images of the mice were taken ventrally (in a supine position) 15 minutes after luciferin administration. The luminescence was digitized with the software of IVIS, followed by evaluation using the value of total flux. Higher luminescence means strong expression of the protein encoded by the DNA encapsulate in the lipid particle. In Table 2, higher luminescence is indicated on a scale of A, B and C in order. A represents luminescence of 3.0E+07 or more, B represents luminescence of 1.0E+0.7 or more and less than 3.0E+07, and C represents luminescence of less than 1.0E+07.

The structures appear in SMILES notation.

For the compound `CCCCCCCCCCOC(=O)CCCCC(=O)OCC(COC(=O)CCCCC(=O)OCCCCCCCCCC)(COC(=O)CCCCC(=O)OCCCCCCCCCC)COC(=O)CCCN(C)C` [Example 42, 1,1′-Didecyl 6,6′-[2-({[6-(dexyloxy)-6-oxohexanoyl]oxy}methyl)-2-({[4-(dimethylamino)butanoyl]oxy}methyl)propane-1,3-diyl] dihexanedioate], in data set [1], the “Particle size (nm)” value was found to be 114.5 nm. Further, in data set [2], the Rate of encapsulation was determined as 86.2. Besides, the Luminescence result in data set [3] is “C (C represents luminescence of less than 1.0E+07)”.

In the case of `CCCCCCCCOC(=O)CCCCC(=O)OCC(COC(=O)CCCCC(=O)OCCCCCCCC)(COC(=O)CCCN(C)C)COC(=O)CC(CCCCC)CCCCC` [Example 43, 1,1′-[2-({[4-(Dimethylamino)butanoyl]oxy}methyl)-2-{[(3-pentyloctanoyl)oxy]methyl}propane-1,3-diyl] 6,6′-dioctyl dihexanedioate], in data set [1], the “Particle size (nm)” value worked out at 126.7 nm. In addition, in data set [2], the Rate of encapsulation is recorded as 96.0. Further, the Luminescence result in data set [3] was “A (A represents luminescence of 3.0E+07 or more)”.

Take `CCCCCCCCCOC(=O)CCCCC(=O)OCC(COC(=O)CCCCC(=O)OCCCCCCCCC)(COC(=O)CCCN(C)C)COC(=O)CC(CCCCC)CCCCC` [Example 44, 1,1′-[2-({[4-(Dimethylamino)butanoyl]oxy}methyl)-2-{[(3-pentyloctanoyl)oxy]methyl}propane-1,3-diyl] 6,6′-dinonyl dihexanedioate]: the “Particle size (nm)” value in data set [1] was found to be 132.3 nm. For the same compound, in data set [2], the Rate of encapsulation was determined as 96.3. The Luminescence result in data set [3] was “A (A represents luminescence of 3.0E+07 or more)”.

Turning to `CCCCCCCCOC(=O)CCCCC(=O)OCC(COC(=O)CCCN(C)C)(COC(=O)CC(CCCCC)CCCCC)COC(=O)CC(CCCCC)CCCCC` [Example 49, 2-({[4-(Dimethylamino)butanoyl]oxy}methyl)-3-[(3-pentyloctanoyl)oxy]-2-{[(3-pentyloctanoyl)oxy]methyl}propyl octyl hexanedioate], the “Particle size (nm)” value in data set [1] was determined as 112.8 nm. Further, the Rate of encapsulation in data set [2] is listed as 96.0. For the same compound, in data set [3], the Luminescence entry is “B (B represents luminescence of 1.0E+0.7 or more and less than 3.0E+07)”.

For `CCCCCCCCCOC(=O)CCCCC(=O)OCC(COC(=O)CCCN(C)C)(COC(=O)CC(CCCCC)CCCCC)COC(=O)CC(CCCCC)CCCCC` [Example 50, 2-({[4-(Dimethylamino)butanoyl]oxy}methyl)-3-[(3-pentyloctanoyl)oxy]-2-{[(3-pentyloctanoyl)oxy]methyl}propyl nonyl hexanedioate], the “Particle size (nm)” value in data set [1] was 86.5 nm. Also, the Rate of encapsulation in data set [2] is listed as 98.2. Also, the Luminescence result in data set [3] was “B (B represents luminescence of 1.0E+0.7 or more and less than 3.0E+07)”.

For the compound `CCCCCOC(=O)CCCCCCCC(=O)OCC(COC(=O)CCCCCCCC(=O)OCCCCC)(COC(=O)CCCCCCCC(=O)OCCCCC)COC(=O)CCCN(C)C` [Example 55, 1,1′-[2-({[4-(Dimethylamino)butanoyl]oxy}methyl)-2-({[9-oxo-9-(pentyloxy)nonanoyl]oxy}methyl)propane-1,3-diyl] 9,9′-dipentyl dinonanedioate], the “Particle size (nm)” value in data set [1] came to 186.2 nm. In addition, the Rate of encapsulation in data set [2] was determined as 79.7. The Luminescence result in data set [3] is listed as “C (C represents luminescence of less than 1.0E+07)”.

`CCCCCCCOC(=O)CCCCCCCC(=O)OCC(COC(=O)CCCCCCCC(=O)OCCCCCCC)(COC(=O)CCCN(C)C)COC(=O)CC(CCCCC)CCCCC` [Example 60, 1,1′-[2-({[4-(Dimethylamino)butanoyl]oxy}methyl)-2-{[(3-pentyloctanoyl)oxy]methyl}propane-1,3-diyl] 9,9′-diheptyl dinonanedioate]: in data set [1], the “Particle size (nm)” value turned out to be 143.9 nm. The Rate of encapsulation in data set [2] is 77.6. In addition, in data set [3], the Luminescence entry was “A (A represents luminescence of 3.0E+07 or more)”.

As for `CCCCCCOC(=O)CCCCCCCC(=O)OCC(COC(=O)CCCN(C)C)(COC(=O)CC(CCCCC)CCCCC)COC(=O)CC(CCCCC)CCCCC` [Example 63, 2-({[4-(Dimethylamino)butanoyl]oxy}methyl)-3-[(3-pentyloctanoyl)oxy]-2-{[(3-pentyloctanoyl)oxy]methyl}propyl hexyl nonanedioate], in data set [1], the “Particle size (nm)” value came out at 90.9 nm. Further, the Rate of encapsulation in data set [2] stood at 98.2. For the same compound, in data set [3], the Luminescence entry is “C (C represents luminescence of less than 1.0E+07)”.

As for `CCCCCCCCCCOC(=O)CC(=O)OCC(COC(=O)CCCN(C)C)(COC(=O)CC(=O)OCCCCCCCCCC)COC(=O)CC(CCCCC)CCCCC` [Example 71, 1,1′-Didecyl 3,3′-[2-({[4-(dimethylamino)butanoyl]oxy}methyl)-2-{[(3-pentyloctanoyl)oxy]methyl}propane-1,3-diyl] dipropanedioate], in data set [1], the “Particle size (nm)” value turned out to be 97.2 nm. Besides, in data set [2], the Rate of encapsulation amounted to 92.6. For the same compound, the Luminescence result in data set [3] is “A (A represents luminescence of 3.0E+07 or more)”.

Take `CCCCCC(CCCCC)CC(=O)OCC(COC(=O)CCCCCCCCCCC(=O)OC)(COC(=O)CCCCCCCCCCC(=O)OC)COC(=O)CCCN(C)C` [Example 77, 1,1′-[2-({[4-(Dimethylamino)butanoyl]oxy}methyl)-2-{[(3-pentyloctanoyl)oxy]methyl}propane-1,3-diyl] 12,12′-dimethyl didodecanedioate]: the “Particle size (nm)” value in data set [1] is reported as 128.7 nm. Also, in data set [2], the Rate of encapsulation is on record as 73.5. For the same compound, in data set [3], the Luminescence entry was “B (B represents luminescence of 1.0E+0.7 or more and less than 3.0E+07)”.

On to `CCCCCCCOC(=O)CCCCC(=O)OCC(COC(=O)CCCCC(=O)OCCCCCCC)(COC(=O)CCCN(C)C)COC(=O)C(CCCCC)CCCCC` [Example 83, 1,1′-[2-({[4-(Dimethylamino)butanoyl]oxy}methyl)-2-{[(2-pentylheptanoyl)oxy]methyl}propane-1,3-diyl] 6,6′-diheptyl dihexanedioate], for which the “Particle size (nm)” value in data set [1] was 148.7 nm. For the same compound, the Rate of encapsulation in data set [2] was 92.9. In addition, the Luminescence result in data set [3] was “B (B represents luminescence of 1.0E+0.7 or more and less than 3.0E+07)”.

Take `CCCCCCCOC(=O)CCCCC(=O)OCC(COC(=O)CCCCC(=O)OCCCCCCC)(COC(=O)CCCN(C)C)COC(=O)CC(CCCC)CCCC` [Example 84, 1,1′-[2-{[(3-Butylheptanoyl)oxy]methyl}-2-({[4-(dimethylamino)butanoyl]oxy}methyl)propane-1,3-diyl] 6,6′-diheptyl dihexanedioate]: in data set [1], the “Particle size (nm)” value is on record as 172.6 nm. Also, the Rate of encapsulation in data set [2] came to 93.5. Moreover, the Luminescence entry in data set [3] was “B (B represents luminescence of 1.0E+0.7 or more and less than 3.0E+07)”.

Turning to `CCCCCCCOC(=O)CCCCC(=O)OCC(COC(=O)CCCCC(=O)OCCCCCCC)(COC(=O)CCCN(C)C)COC(=O)CC(CCCCCC)CCCCCC` [Example 85, 1,1′-[2-({[4-(Dimethylamino)butanoyl]oxy}methyl)-2-{[(3-hexylnonanoyl)oxy]methyl}propane-1,3-diyl] 6,6′-diheptyl dihexanedioate], the “Particle size (nm)” value in data set [1] is 148.3 nm. In data set [2], the Rate of encapsulation is 95.4. In data set [3], the Luminescence result is “B (B represents luminescence of 1.0E+0.7 or more and less than 3.0E+07)”.
